Experimental data from article PMC8533089, “Characteristics of Neurokinin-3 Receptor and Its Binding Sites by Mutational Analysis” (Biology, 2021).

Tests used:
[1] = system: testicular cell composition; experiment: 14-day in vivo experiment: testicular histology and cell composition; design: species or system adult male tilapia (Oreochromis niloticus)
Protocol: (§1) Adult male tilapia (BW 87.29 ± 26.1 g; gonado-somatic index (GSI 0.21% ± 0.36%) were IP injected with SB-222200 (500 µg/kg BW in 25% DMSO) and saline with 25% DMSO as a control every 48 h during a 14-day period. Blood was sampled every 48 h. Milt volume was collected from 6 fish from each group 7 and 14 days after the first injection, generally according to [55].
Testes were sampled for histology at 14 days, and testicular cell composition was analyzed. Testes were fixed for 24 h, after which a portion was removed (~5 mm in length) from the center of the larger right testicular lobe for histological processing. Samples were rinsed in distilled water, dehydrated in an alcohol series, cleared in xylene, embedded in paraffin, serially sectioned at 4 μm in the transverse plane, and stained with hematoxylin and eosin using standard histological techniques. Photomicrographs were then taken (4× objective) of 3 randomly chosen sections from each individual for analysis of testicular cell composition. Randomly generated points (n = 50) were overlaid on each photograph (CPCe software), and the cell type underneath each crosshair point was identified. A minimum of 50 points was necessary to adequately determine the percentage of cell types. Cell types were identified based on previous descriptions in this and other related teleost species reviewed in [57], and the following cells were quantified: spermatogonia, spermatids, and spermatozoa (mature sperm). Each cell type was then expressed as a percentage of the total, and averaged across the 3 sections to obtain a mean for each individual.

[2] = system: Tac3R; design: method as in PMID 10992004; details: cited from earlier work
Source text: (§2) The effect of NKB/NKF peptides on gonadotropin secretion in fish is already well established. The first indication that NKB is widely expressed in fish species and has a stimulatory reproductive effect was shown in zebrafish, goldfish, and tilapia. […] Osetanant re ...

[3] = system: LH secretion; details: OVX ewes, micro-implants in the ARC; cited from earlier work
Source text: as §2

[4] = system: milt volume; experiment: 14-day in vivo experiment: milt volume / sperm production; design: species or system adult male tilapia (Oreochromis niloticus); details: 500 µg/kg BW IP every 48 h; days 7 and 14; six fish per group; versus control
Protocol: as §1

CC[C@H](NC(=O)c1c(C)c(-c2ccccc2)nc2ccccc12)c1ccccc1 [SB-222200]
number of spermatozoa ([1]; 500 µg/kg BW IP every 48 h, day 14): significantly reduced the number of spermatozoa | other cells, % of cells ([1]; 500 µg/kg BW IP every 48 h, day 14, Figure 9E, *): 48.38% | spermatid, % of cells ([1]; 500 µg/kg BW IP every 48 h, day 14, control 23.2%, significant): 10% | spermatozoa, % of cells ([1]; 500 µg/kg BW IP every 48 h, day 14, control 23.78%, significant): 6.63% | spermatogonia, % of cells ([1]; 500 µg/kg BW IP every 48 h, day 14, control 32.87%): 35% | spermatogonia, count ([1]; day 14, Figure 9E): 280 | other cells, count ([1]; day 14, Figure 9E, *): 387 | spermatid, count ([1]; day 14, Figure 9E, *): 80 | spermatozoa, count ([1]; day 14, Figure 9E, *): 53 | inhibition of NKB binding to the membranes of CHO cells ([2]; CHO cells stably expressing the Tac3R receptor): inhibited NKB binding to the membranes of CHO cells | antagonism of NKB-induced Ca^2+ mobilization ([2]; HEK 293 cells): antagonized NKB-induced Ca^2+ mobilization in HEK 293 cells | LH secretion [3]: disrupted LH secretion | sperm production (milt volume) [4]: retained a low sperm production after 7 and 14 days compared to that of the control group
